{"source": "patent US5948913A", "about": "“Hydrate for drug use” (Daiichi Pharmaceutical Co., Ltd., priority 1994, dated 1999)", "key": {"[1]": {"test": "Storage stability under dry heating and wet heating conditions", "assay_type": "physicochemical", "experimental": "(§1) (FIG. 2). Also, changes in its appearance were hardly found and its changes in the content (determination by HPLC) were not found under dry heating conditions (50° C., tightly sealed in a bottle, 1 month) or wet heating conditions (40° C., 75% humidity, 1 month)."}, "[2]": {"test": "Weight / moisture change as a function of humidity", "assay_type": "physicochemical", "experimental": "On the other hand, when methanol was used as the solvent at the time of crystal precipitation, the thus obtained hydrochloride anhydrate of the compound of formula (1) also contained methanol, but it was able to remove the contained methanol almost completely when the crystals were dried with heating (120° C.) under a reduced pressure for several days or more.\nas §1\nFIG. 1 is a graph showing changes in the weight of 3-[2-[4-(3-chloro-2-methylphenyl)-1-piperazinyl]ethyl]-5,6-dimethoxy-1-(4- imidazolylmethyl)-1H-indazole hydrochloride anhydrate plotted as a function of humidity,\nFIG. 2 is a graph showing changes in the weight of the 3.5-hydrate of the present invention plotted as a function of humidity, […]"}, "[3]": {"test_system": "rats", "details": "rat, in vivo", "experimental": "(§2) With regard to the toxicity, its oral single administration toxicity was 200 mg/kg or more, and serious side effects were not observed in rats by repeated oral administration toxicity test over 10 days and repeated intravenous injection toxicity test over 10 days."}, "[4]": {"details": "in vivo", "experimental": "as §2"}, "[5]": {"test_system": "rhesus monkeys", "test": "Central nervous inhibition actions", "assay_type": "in vivo, rhesus monkey", "details": "10 mg/kg intravenous injection", "experimental": "(§3) Particularly serious actions upon hemodynamics and electrocardiogram were not observed in dogs, and significant central nervous inhibition actions were not observed in rhesus monkeys even when a dose of 10 mg/kg was administered by intravenous injection."}, "[6]": {"test_system": "mouse nitrogen-loaded hypoxia model", "test": "Mouse nitrogen-loaded hypoxia model", "assay_type": "in vivo", "details": "mice, 30 mg/kg oral, 60 minutes before nitrogen gas feeding", "experimental": "This test was carried out in accordance with the method of Albert Wauquier et al. (Japan J. Pharmacol., 38, 1-7 (1985)).\nA total of 9 to 10 mice were used in 1 group, and each animal 60 minutes after oral administration of a drug to be tested (30 mg/kg) was put into a transparent container (500 ml capacity) equipped with an air outlet and then the container was fed with nitrogen gas at a rate of 5.0 L/min. The period of time from the commencement of gas feeding until respiratory arrest was measured."}, "[7]": {"test_system": "hippocampus CA1 nerve cells", "test": "Changes in hippocampus nerve cells in cerebral ischemia model", "assay_type": "in vivo", "details": "jird, 5 minutes cerebral ischemia, 100 mg/kg oral 1 hour after ischemia loading", "experimental": "When transient cerebral ischemia is loaded on a jird, hippocampus nerve cells start to get necrosis several days thereafter, and such a change is called delayed nerve cell death. The following test was carried out in accordance with the method of T. Kirino (Brain Res., 239, 57-69 (1982)). That is, each jird was loaded with 5 minutes of cerebral ischemia and then sacrificed to count the number of nerve cells remained in the hippocampus CA1 region."}, "[8]": {"test_system": "rat microsphere cerebral embolus model", "test": "Anti-edema effect in rat microsphere cerebral embolus model", "assay_type": "in vivo", "details": "8 hr, intravenous infusion, 24 hours after operation", "experimental": "This test was carried out in accordance with the method of Nobutaka Demura et al. (Neuroscience Res., 17, 23-30 (1983)).\nUnder halothane anesthesia, a Slc;Wis rat (about 300 g) which has been treated with caudal vein cannulation in advance was subjected to neck incision to tear off the left side common carotid artery. Wing process palate artery and external carotid artery on the same side were also torn off and subjected to artery clipping. Carbon microspheres (50±10 μm in diameter) were suspended in 20% dextran and injected into the left side common carotid artery to effect dispersion of the microspheres in the left cerebral hemisphere via the left internal carotid artery, the common carotid artery was immediately clipped to stop bleeding from the microsphere-injected part, and then the artery clip was removed to restart blood circulation. Thereafter, each drug solution was continuously injected using an infusion pump from the catheter which has been inserted into caudal vein.\nEach animal was sacrificed by decapitation 24 hours after the operation, and the brain was excised immediately after the decapitation to measure wet weights of both left and right hemispheres. Each tissue was then dried overnight at 150° C. to measure its dry weight and to calculate water content of each hemisphere.\nAs a control group, a vehicle group (20% dextran only) was arranged and treated in the same manner."}, "[9]": {"test_system": "dogs", "test": "Actions upon hemodynamics and electrocardiogram", "assay_type": "in vivo, dog", "experimental": "as §3"}, "[10]": {"molecular_target": "calmodulin-dependent phosphodiesterase (PDE)", "test": "Calmodulin inhibition action (calmodulin-dependent phosphodiesterase inhibition)", "assay_type": "biochemical", "details": "CaM and CaM-PDE of bovine brain origin, [3H]-cGMP, 30° C., 10 minutes; read-out: PDE inhibition effect, IC50"}, "[11]": {"details": "dry heating conditions (50° C., tightly sealed in a bottle, 1 month)"}, "[12]": {"details": "wet heating conditions (40° C., 75% humidity, 1 month)"}}, "note": "pIC50: −log10 of the molar value. Where a name gives a salt, the structure may show the parent alone. Read-outs that look alike come from different tables or passages of the source."}
{"smiles": "COc1cc2c(CCN3CCN(c4cccc(Cl)c4C)CC3)nn(Cc3c[nH]cn3)c2cc1OC", "note": "[Inventive Example 3, 3-[2-[4-(3-Chloro-2-methylphenyl)-1-piperazinyl]ethyl]-5,6-dimethoxy-1-(4-imidazolylmethyl)-1H-indazole dihydrochloride 3.5-hydrate]", "values": [{"measurement": "changes in appearance", "setting": "[1]; [11]", "value": "hardly found"}, {"measurement": "changes in the content (determination by HPLC)", "setting": "[1]; [11]", "value": "not found"}, {"measurement": "changes in appearance", "setting": "[1]; [12]", "value": "hardly found"}, {"measurement": "changes in the content (determination by HPLC)", "setting": "[1]; [12]", "value": "not found"}, {"measurement": "changes in powder X-ray diffraction pattern or detectable water content", "setting": "[2]; relative humidity changed from about 20% to about 80% at 25° C., FIG. 2", "value": "did not show changes"}]}
{"smiles": "COc1cc2c(CCN3CCN(c4cccc(Cl)c4C)CC3)nn(Cc3c[nH]cn3)c2cc1OC", "note": "[Inventive Example 2, 3-[2-[4-(3-Chloro-2-methylphenyl)-1-piperazinyl]ethyl]-5,6-dimethoxy-1-(4-imidazolylmethyl)-1H-indazole 1.5-hydrochloride (anhydrous crystals)]", "values": [{"measurement": "moisture absorption in response to environmental humidity", "setting": "[2]; room temperature, anhydrate after removal of methanol, FIG. 1", "value": "absorb moisture in response to the environmental humidity"}]}
{"smiles": "COc1cc2c(CCN3CCN(c4cccc(Cl)c4C)CC3)nn(Cc3c[nH]cn3)c2cc1OC", "note": "[compound of the present invention, 3-[2-[4-(3-chloro-2-methylphenyl)-1-piperazinyl]ethyl]-5,6-dimethoxy-1-(4-imidazolylmethyl)-1H-indazole]", "values": [{"measurement": "serious side effects", "setting": "[3]; iv", "value": "not observed"}, {"measurement": "serious side effects", "setting": "[3]; po", "value": "not observed"}, {"measurement": "oral single administration toxicity", "setting": "[4]", "value": "≥ 200", "unit": "mg/kg"}, {"measurement": "significant central nervous inhibition actions", "setting": "[5]", "value": "not observed"}, {"measurement": "increasing ratio of time until respiratory arrest (control group defined as 100%)", "setting": "[6]", "value": 15.1, "unit": "%"}, {"measurement": "protecting effect against nerve cell death", "setting": "[7]", "value": "distinct protecting effect"}, {"measurement": "Hippocampus Nerve Cell Density", "setting": "[7]; CA1 region", "value": "131 ± 21.2", "unit": "cells/mm"}, {"measurement": "Water content, Control Side (right hemisphere)", "setting": "[8]; dose 1 mg/kg/hr", "value": "78.8 ± 0.1", "unit": "%"}, {"measurement": "Water content, Disease Side (left hemisphere)", "setting": "[8]; dose 1 mg/kg/hr", "value": "80.1 ± 0.4", "unit": "%"}, {"measurement": "Water content, Control Side (right hemisphere)", "setting": "[8]; dose 2 mg/kg/hr", "value": "78.7 ± 0.1", "unit": "%"}, {"measurement": "Water content, Disease Side (left hemisphere)", "setting": "[8]; dose 2 mg/kg/hr", "value": "79.8 ± 0.3", "unit": "%"}, {"measurement": "particularly serious actions upon hemodynamics and electrocardiogram", "setting": "[9]", "value": "not observed"}, {"measurement": "pIC50", "setting": "[10]", "value": 5.26}]}
